The values below come from patent US20240191198A1, “CELL-CULTURED FOOD PRODUCTS AND RELATED CELLS, COMPOSITIONS, METHODS AND SYSTEMS” (BlueNalu, Inc., priority 2021, published 2024).

Entries after “also recorded” stand apart in the source; their conditions may differ.

The subject of series [1] is Yellowtail myoblasts. In words: Loading of single fatty acids into yellowtail myoblasts. The series is classed as cell-based, Seriola lalandi. The following applies: for lipid accumulation (BODIPY): individual BSA-conjugated fatty acid 25, 50, 75 or 100 μg/ml, 4% serum. On the procedure:
Cells were seeded onto tissue culture polystyrene at a density of 6000 cells per cm^2. Cells were cultured in the presence of control media without fatty acids or test media with individual fatty acids conjugated to BSA at 25, 50, 75, or 100 μg/ml in the presence of 4% serum. Individual fatty acids tested included saturated fatty acids, monounsaturated fatty acids, and unsaturated fatty acids as shown in Table 7 with varying carbon chain length and location of double bonds along the carbon chain. Cell morphology was observed over a six-day period by brightfield microscopy for characteristic rounding and lipid loading.

Series [2] relates to silver carp preadipocytes. In words: Loading of single fatty acids into carp preadipocytes. The series is classed as cell-based, Hypophthalmichthys molitrix. The conditions noted are these: six days; for lipid loading (brightfield, BODIPY lipid droplets): individual fatty acid 25, 50, 75 or 100 μg/ml; for toxicity (cell confluency, cell number): individual fatty acid up to 100 μg/ml. The method, then: Preadipocytes derived from freshwater carp as described in Example 1 were evaluated for the ability to uptake individual fatty acids. Cells were seeded onto tissue culture polystyrene at a density of 5-7000 cells per cm^2. Cells were cultured in the presence of control media without fatty acids or test media with individual fatty acids at 25, 50, 75, or 100 μg/ml in the absence of serum. Individual fatty acids tested included saturated fatty acids ([…]) and unsaturated fatty acids (linoleic acid). Cell morphology was observed over a six-day period by brightfield microscopy for characteristic rounding and lipid loading. As in Example 1, immunofluorescent staining of cells was performed for cell nuclei by DAPI, cell cytoskeleton by Phalloidin, and lipid droplets by BODIPY.

A further series relates to dog kidney cells. In words: Effect of nervonic acid on fatty acid toxicity (IncuCyte, CellTiter-Glo ATP assay). The series is classed as cell-based, Canis familiaris. On the procedure: (§1) Concentration effects of fatty acids previously shown to be toxic to aquatic fat-derived and muscle-derived cells (Example 2, Example 5, and Example 6, respectively) were evaluated, alone and in combination with nervonic acid. EPA, DHA, stearic acid, palmitic acid and nervonic acid were tested at concentrations of 0, 10, 25, and 50 ug/mL; each concentration of EPA, DHA, stearic acid and palmitic acid was also tested in combination with 10, 25 and 50 μg/ml of nervonic acid.
(§2) Cell lines were seeded per standard passaging protocols in 4×96 well plates. The cells were allowed to proliferate to approximately 80% confluence, and then transitioned to lipid loading medium containing 0/4% FBS and appropriate lipid compositions, with 6 wells/condition. Cells were monitored for 24-48 hours to evaluate any protective effect with the addition of nervonic acid.
(§3) Cells from terrestrial cell lines were imaged in the IncuCyte for a 1-time scan to collect the images and quantify confluence using the IncuCyte software. Following imaging, cell viability was determined by a commercially available ATP assay (CellTiter-Glo 2.0, Promega) where luminescent signal is proportionate to cell number.

For a further series, the system named is rabbit skin fibroblasts. The series is described as above. The series is classed as cell-based, Oryctolagus cuniculus. The method, then: as §1, §2, §3
In the next series the test system is Bluefin tuna myoblasts. The series is described as above. The series is classed as cell-based, Thunnus orientalis. The method, then: as §1, §2
Cells from aquatic species were placed in the IncuCyte and scanned every 6 hours up to 48 hours. Once imaging was completed, cellviability was determined by a commercially available ATP assay (CellTiter-Glo 2.0, Promega) where luminescent signal is proportionate to cell number.

Series [3] relates to Yellowtail myoblasts. In words: Loading of chemically defined fatty acid combinations (Taguchi L-27) into yellowtail myoblasts: cell number, BODIPY, Mitotracker. The series is classed as cell-based, Seriola lalandi. The following applies: fatty acids each at 0, 10, 25 or 50 μg/ml, 4% serum. The method, then:
Myoblasts derived from yellowtail as described in Example 4 were evaluated for the ability to uptake fatty acids from a defined chemical composition. Cells were seeded onto tissue culture polystyrene at a density of 6000 cells per cm^2. Cells were cultured in the presence of control media without fatty acids or test media with fatty acids conjugated to BSA in the presence of 4% serum for two or six days. Concentrations were used for each individual fatty acid at 0, 10, 25, or 50 μg/ml. Combinations of fatty acids were determined using a design of experiments using a Taguchi L-27 design (Table 8). […] Cells were fixed, stained and imaged at day two or day six. Cells were treated with NucBlue, BODIPY and Mitotracker for 1.5 hours and live imaging was performed. Cells were then fixed in 4% PFA for 15 minutes and then blocked overnight at 4 degrees Celsius in blocking buffer that contained 5% goat serum, 1% BSA, and 0.2% fish gelatin in PBS. Cells were incubated with Phalloidin for 1 hour at room temperature in blocking buffer (Phalloidin 1:800). Plates were washed twice with PBS prior to imaging. JMP statistical software was used to quantify the effect of each fatty acid on cell number, fatty acid accumulation, and cell health.

The test system of series [4] is Myoblasts or fibroblasts of chicken, duck, goose, or turkey. In words: Loading of fatty acid mixtures and single fatty acids into cells from avian species. The series is classed as cell-based. On the procedure: Myoblasts or fibroblasts of chicken, duck, goose, or turkey are isolated from muscle tissue by enzymatic and mechanical/or manual dissociation. Cells are expanded in 2D tissue culture or cell suspension culture.
(§4) Cells are cultured in the presence of control media without fatty acids or test media with individual fatty acids at 1, 5, 10, 15, 25, 50, 75, or 100 μg/ml in the absence or presence of reduced serum. Fatty acids are conjugated to BSA or unconjugated. Individual fatty acids include saturated fatty acids, monounsaturated fatty acids, and poly-unsaturated fatty acids with varying carbon chain lengths and location of double bonds along the carbon chains.

Series [5] deals with Myoblasts or fibroblasts of cow, pork, goat, lamb, or deer. In words: Loading of fatty acid mixtures and single fatty acids into mammalian cells. The series is classed as cell-based. On the procedure: Myoblasts or fibroblasts of cow, pork, goat, lamb, or deer are isolated from muscle tissue by enzymatic and mechanical/or manual dissociation. Cells are expanded in 2D tissue culture or 3D cell suspension culture.
as §4

Setting [6] is: toxic concentration of 50 μg/mL DHA.
The mark [7] stands for this setting: 1-100 μg/ml, absence or presence of reduced serum.
The mark [8] stands for this setting: added to the growth medium as the only fatty acid.

With `CCCCCCCCCCCCCCCCCC(=O)O` [stearic acid], in the series on Yellowtail myoblasts [1] (six days), the “lipid accumulation (BODIPY)” value is recorded as “limited accumulation with only small areas of uptake even at the highest concentration of 100 μg/ml”.
In the case of `CCCCC/C=C\C/C=C\CCCCCCCC(=O)O` [linoleic acid], the “lipid accumulation (BODIPY)” value in the series on Yellowtail myoblasts [1] (six days) is given as “limited total loading capacity”. In addition, the “lipid loading (brightfield, BODIPY lipid droplets)” value (from here on “lipid loading”) in series [2] is listed as “concentration-dependent lipid accumulation; also recorded: increased loading with concentration”.
`CCCCCC/C=C\CCCCCCCCCC(=O)O` [vaccenic acid, (11Z)-11-octadecenoic acid]: the “lipid accumulation (BODIPY)” value in the series on Yellowtail myoblasts [1] (six days) is on record as “Loading at all concentrations was observed”; in the series on Yellowtail myoblasts [1] (six days, listed as Cis-vaccenic acid) it was “taken up very readily”.
As to `CC/C=C\C/C=C\C/C=C\C/C=C\C/C=C\C/C=C\CCC(=O)O` [DHA, docosahexaenoic acid], the “concentration above which toxicity occurs” value in the series on Yellowtail myoblasts [1] (altered cell morphology and decreased cell number) is given as “above 25 μg/ml”. The “toxicity (cell morphology, cell number)” value in the series with Yellowtail myoblasts [1] (individual fatty acid, six days) is “some toxicity effects at highest concentrations tested”. Further, the toxic concentration in the series with dog kidney cells (24-48 hours), in the series on rabbit skin fibroblasts (24-48 hours) and in the series with Bluefin tuna myoblasts (24-48 hours) was 50 µg/mL each time.
Consider `CCCCCCCCCCCCCCCC(=O)O` [palmitic acid], for which the “lipid accumulation (BODIPY)” value with Yellowtail myoblasts [1] (six days) was “limited accumulation with only small areas of uptake even at the highest concentration of 100 μg/ml”.
Regarding `CC/C=C\C/C=C\C/C=C\CCCCCCCC(=O)O` [linolenic acid, α-linolenic acid], in the series with Yellowtail myoblasts [1] (six days), the “lipid accumulation (BODIPY)” value was “lipid accumulation that was concentration-driven; also recorded: Loading at all concentrations was observed”.
The same measure, in the same setting: in the case of `CCCCCCCCCCCCCC(=O)O` [myristic acid] it was “limited accumulation with only small areas of uptake even at the highest concentration of 100 μg/ml”.
On the same count and under the same terms, as for `CCCCCCCCCCCC(=O)O` [lauric acid], the entry is “significant accumulation at all concentrations tested; also recorded: Highest lipid loading”.
As for `CCCCCCCC/C=C\CCCCCCCCCCCCCC(=O)O` [nervonic acid, (Z)-Tetracos-15-enoic acid], the “cell number and health (Mitotracker), viability” value in the series on Yellowtail myoblasts [3] is “key factor in increasing lipid accumulation and cell number”. In addition, the “lipid content / lipid accumulation (BODIPY fluorescence)” value with Yellowtail myoblasts [3] (two or six days) is “key factor in increasing lipid accumulation and cell number”. Besides, the “lipid accumulation (BODIPY)” value in the series with Yellowtail myoblasts [1] (six days) is listed as “no lipid accumulation at any concentration tested; also recorded: does not load when used individually; also recorded: No lipid loading was observed”. In addition, the “increase in cell number (cell ATP) in the presence of nervonic acid” value came to 5.5 × in the series on dog kidney cells (setting [6]), 42 × in the series on rabbit skin fibroblasts (setting [6]) and 70 × in the series on Bluefin tuna myoblasts (setting [6]). Also, the “lipid uptake and lipid accumulation” value in series [4] (setting [7]) is “causes increased lipid uptake and lipid accumulation”; in series [5] (setting [7]) it was “causes increased lipid uptake and lipid accumulation”. The cell proliferation entry in series [4] (setting [8]) and in series [5] (setting [8]) was “increases cell proliferation” throughout.
`CCCCCC/C=C\CCCCCCCC(=O)O` [palmitoleic acid]: the “lipid accumulation (BODIPY)” value in the series with Yellowtail myoblasts [1] (six days) is “Loading at all concentrations was observed”. Moreover, in series [2], the “lipid loading” value is recorded as “concentration-dependent lipid accumulation; also recorded: a peak for palmitoleic acid is reached at a lower concentration”; the “toxicity (cell confluency, cell number)” value is “reduced cell confluency indicating potential toxicity”; the “concentration above which toxicity occurs” value was “above 50 μg/ml”. Further, in series [2] (listed as Palmitoleic acid), the “lipid loading” value is recorded as “effective loading at 50 μg/ml” and the “toxicity (cell confluency, cell number)” value is “reduced cell number; also recorded: Some concentration-related toxicity”.
Consider `CCCCCCCC/C=C\CCCCCCCC(=O)O` [oleic acid], for which, in the series on Yellowtail myoblasts [1] (six days), the “lipid accumulation (BODIPY)” value was “Loading at all concentrations was observed”.
